Reference: publication PMC12367851, “In vitro CB1 receptor activity of halogenated indazole synthetic cannabinoid receptor agonists” (Archives of Toxicology, 2025)

Target: human CB1 receptor (Homo sapiens, UniProt P21554)
Test: AequoScreen CB1 assay (intracellular Ca2+ release, CHO-K1 cells, apoaequorin/Gα16)
Conditions: for Emax: CHO-K1, read-out: Efficacy (% of JWH-018) Emax; for Efficacy (Emax) Mean Diff: Brown-Forsythe and Welch ANOVA; for fold difference of each other (potency): brominated SCRAs with pent-4-enyl, butyl and pentyl tails
[1] = Compound 1 vs Compound 2 = MDMB-5’Cl-BUTINACA
[2] = Compound 1 vs Compound 2 = MDMB-5’F-BUTINACA
[3] = Compound 1 vs Compound 2 = MDMB-BUTINACA
[4] = Compound 1 vs Compound 2 = MDMB-INACA
[5] = Compound 1 vs Compound 2 = MMB-5’Cl-BUTINACA

Sequence of human CB1 receptor (P21554 whole entry): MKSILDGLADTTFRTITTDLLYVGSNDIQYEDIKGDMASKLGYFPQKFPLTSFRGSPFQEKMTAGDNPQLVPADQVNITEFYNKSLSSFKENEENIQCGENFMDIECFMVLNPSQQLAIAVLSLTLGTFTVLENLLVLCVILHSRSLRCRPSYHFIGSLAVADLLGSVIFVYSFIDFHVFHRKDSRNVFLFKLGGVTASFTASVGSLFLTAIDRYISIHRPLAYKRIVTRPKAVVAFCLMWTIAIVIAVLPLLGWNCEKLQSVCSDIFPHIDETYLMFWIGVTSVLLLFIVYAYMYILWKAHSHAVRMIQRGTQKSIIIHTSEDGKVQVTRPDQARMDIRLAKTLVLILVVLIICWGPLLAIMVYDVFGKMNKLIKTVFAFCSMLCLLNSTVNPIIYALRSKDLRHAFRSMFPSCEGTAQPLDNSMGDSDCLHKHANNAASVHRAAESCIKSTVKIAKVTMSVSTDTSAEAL

C=CCCCn1nc(C(=O)NC(C(=O)OC)C(C)(C)C)c2cc(Br)ccc21 (stereo not shown) [MDMB-4en-5′Br-PINACA, methyl 2-{[5-bromo-1-(pent-4-en-1-yl)−1H-indazole-3-carbonyl]amino}−3,3-dimethylbutanoate]
EC50: 44.6 nM | Emax: 120% | Efficacy (Emax) Mean Diff (Compound 1 vs Compound 2 = MDMB-4en-PINACA): 11.19 | fold less potent than MDMB-4en-PINACA (EC50 ratio vs non-halogenated analog MDMB-4en-PINACA): 2.5 fold | fold difference of each other (potency): ≤ 1.4 fold

C=CCCCn1nc(C(=O)NC(C(=O)OC)C(C)(C)C)c2ccccc21 (stereo not shown) [MDMB-4en-PINACA, reference compound]
EC50: 17.9 nM | Emax: 109%

CCCCn1nc(C(=O)NC(C(=O)OC)C(C)(C)C)c2cc(Br)ccc21 (stereo not shown) [MDMB-5′Br-BUTINACA]
EC50: 42.4 nM | Emax: 114% | Efficacy (Emax) Mean Diff (Compound 1 vs Compound 2 = MDMB-4en-5’Br-PINACA (also printed MDMB-5’Br-4en-PINACA)): -6.38 | Efficacy (Emax) Mean Diff [1]: 3.79 | Efficacy (Emax) Mean Diff [2]: 2.52 | Efficacy (Emax) Mean Diff [3]: -7.53 | fold less potent than MDMB-BUTINACA (EC50 ratio vs non-halogenated analog MDMB-BUTINACA): 4.8 fold | fold difference of each other (potency): ≤ 1.4 fold

COC(=O)C(NC(=O)c1n[nH]c2ccc(Br)cc12)C(C)(C)C (stereo not shown) [MDMB-5′Br-INACA, methyl 2-[5-bromo-1H-indazole-3-carboxamido]−3,3-dimethylbutanoate]
EC50: 2200 nM | Emax: 110% | Efficacy (Emax) Mean Diff [4]: -2.31 | fold weaker in potency than JWH-018 (EC50 ratio vs JWH-018): 100 fold | fold more potent than MDMB-INACA (EC50 ratio, tail-less SCRAs): 1.7 fold

CCCCn1nc(C(=O)NC(C(=O)OC)C(C)(C)C)c2cc(Cl)ccc21 (stereo not shown) [MDMB-5′Cl-BUTINACA]
EC50: 10.6 nM | Emax: 110% | Efficacy (Emax) Mean Diff [3]: -11.32

CCCCn1nc(C(=O)NC(C(=O)OC)C(C)(C)C)c2cc(F)ccc21 (stereo not shown) [MDMB-5′F-BUTINACA]
EC50: 5.75 nM | Emax: 111% | Efficacy (Emax) Mean Diff [1]: 1.27 | Efficacy (Emax) Mean Diff [3]: -10.05

COC(=O)C(NC(=O)c1n[nH]c2ccc(C)cc12)C(C)(C)C (stereo not shown) [MDMB-5′Me-INACA, methyl 3,3-dimethyl-2-[(5-methyl-1H-indazole-3-carbonyl)amino]butanoate]
EC50: 1370 nM | Emax: 113% | Efficacy (Emax) Mean Diff (Compound 1 vs Compound 2 = MDMB-5’Br-INACA): 3.46 | Efficacy (Emax) Mean Diff [4]: 1.15 | fold more potent than MDMB-5′Br-INACA (EC50 ratio, tail-less SCRAs): 1.6 fold | fold more potent than MDMB-INACA (EC50 ratio, tail-less SCRAs): 2.7 fold

CCCCn1nc(C(=O)NC(C(=O)OC)C(C)(C)C)c2ccccc21 (stereo not shown) [MDMB-BUTINACA, reference compound]
EC50: 8.9 nM | Emax: 121%

COC(=O)C(NC(=O)c1n[nH]c2ccccc12)C(C)(C)C (stereo not shown) [MDMB-INACA, reference compound]
EC50: 3690 nM | Emax: 112%

CCCCn1nc(C(=O)NC(C(=O)OC)C(C)C)c2cc(Br)ccc21 (stereo not shown) [MMB-5′Br-BUTINACA]
EC50: 259 nM | Emax: 105% | Efficacy (Emax) Mean Diff (Compound 1 vs Compound 2 = ADB-5’Br-BUTINACA): -4.38 | Efficacy (Emax) Mean Diff [5]: -3.81 | Efficacy (Emax) Mean Diff (Compound 1 vs Compound 2 = MMB-5’F-BUTINACA): -1.32

CCCCn1nc(C(=O)NC(C(=O)OC)C(C)C)c2cc(Cl)ccc21 (stereo not shown) [MMB-5′Cl-BUTINACA]
EC50: 148 nM | Emax: 109% | Efficacy (Emax) Mean Diff (Compound 1 vs Compound 2 = ADB-5’Cl-BUTINACA): -3.40 | Efficacy (Emax) Mean Diff [1]: -0.60

CCCCn1nc(C(=O)NC(C(=O)OC)C(C)C)c2cc(F)ccc21 (stereo not shown) [MMB-5′F-BUTINACA]
EC50: 26.4 nM | Emax: 107% | Efficacy (Emax) Mean Diff (Compound 1 vs Compound 2 = ADB-5’F-BUTINACA): -6.25 | Efficacy (Emax) Mean Diff [2]: -4.36 | Efficacy (Emax) Mean Diff [5]: -2.49

CCCCCCCCCCn1nc(C(=O)NC(C(N)=O)C(C)(C)C)c2cc(Br)ccc21 (stereo not shown) [N-(1-amino-3,3-dimethyl-1-oxobutan-2-yl)−5-bromo-1-decyl-1H-indazole-3-carboxamide]
Potency (EC50, nM) (three-parameter logistic fit, n ≥ 3, triplicate, racemic standards): not even reaching saturation
